# pIC50: −log10 of the molar value.
# Columns and labels:
# telomerase = telomerase (Homo sapiens, UniProt O14746); test: Q-TRAP telomerase activity in MCF7 breast cancer cells; assay type: cell-based; parameters: allow the enzymatic addition of telomeric DNA repeats by endogenous telomerase; endogenous in cells
# [1] = system: PC3, a human prostate cancer cell line; test: MTT toxicity assay in PC3 prostate cancer cells; assay type: cell-based
# Experimental: Toxicity of the dibenzyl butyl lactone derivative (3-[(3,4-dimethoxyphenyl)cyclopentyl], 4-[(3-hydroxyphenol)methyl]oxolan-2-one) in breast cancer cells was evaluated using MTT assay. The MTT toxicity test is a colorimetric assay to measure cells' metabolic activity by serving as a substrate of cellular enzymes that reduce the tetrazolium orange dye, MTT (3-(4,5-Dimethylthiazol-2-yl)-2,5-diphenyltetrazolium bromide) to its insoluble, formazan, giving a purple color. The rate of conversion is directly proportional to cells' mitochondrial metabolic activity via NAD (P) H-dependent cellular oxidoreductase enzymes and serves as a surrogate marker of cell viability.
# Cells previously expanded were seeded in 96 well plates at 1.9×10^5 and 9.6×10^4 cells/plate for 24- and 72-hours treatment respectively. This concentration is known to show the best window for the MTT assay, with better sensitivity and low variability.
# 5 mg of powdered enterolactone, dibenzyl butyl lactone derivative enantiomer A, and dibenzyl butyl lactone derivative enantiomer B were dissolved in 500 μl of DMSO at room temperature. Eight-point curves, ⅓ dilutions (highest concentration 125 μM), were prepared.
# Twenty-four hours following the seeding process, the cells were washed once with phosphate buffered saline (PBS) and treated with the respective compounds in cell culture media. Each condition was tested in triplicates. For positive and negative controls, 8 mM methyl methane sulfonate (MMS) and DMSO 100% were used respectively.
# Following compound addition, the plates were incubated for 24 and 72 hours. After the treatment period, cells were washed twice with PBS and media was replaced with MTT reagent at 0.5 mg/ml in Dulbecco's modified Eagle medium (DMEM) without phenol red. The plates were gently shaken and incubated for 4 hours. After the incubation the medium was removed and replaced by DMSO. The plates were gently shaken to solubilize the formazan crystals. Absorbance was measured using an Envision multiplate reader at a wavelength of 570 nm.
# Toxicity of the dibenzyl butyl lactone derivative (3-[(3,4-dimethoxyphenyl)cyclopentyl], 4-[(3-hydroxyphenol)methyl]oxolan-2-one) in prostate cancer cells was evaluated using MTT assay. The same methods as those used in Example 2 were employed, except the cell line used was PC3, a human prostate cancer cell line, and cell cultures were established in Kaighn's modification of Ham's […] medium.
# MTT assay results are shown in Tables 16-21 and expressed as the percentage of cell death after treatment.
# telomerase, sequence (O14746 whole entry): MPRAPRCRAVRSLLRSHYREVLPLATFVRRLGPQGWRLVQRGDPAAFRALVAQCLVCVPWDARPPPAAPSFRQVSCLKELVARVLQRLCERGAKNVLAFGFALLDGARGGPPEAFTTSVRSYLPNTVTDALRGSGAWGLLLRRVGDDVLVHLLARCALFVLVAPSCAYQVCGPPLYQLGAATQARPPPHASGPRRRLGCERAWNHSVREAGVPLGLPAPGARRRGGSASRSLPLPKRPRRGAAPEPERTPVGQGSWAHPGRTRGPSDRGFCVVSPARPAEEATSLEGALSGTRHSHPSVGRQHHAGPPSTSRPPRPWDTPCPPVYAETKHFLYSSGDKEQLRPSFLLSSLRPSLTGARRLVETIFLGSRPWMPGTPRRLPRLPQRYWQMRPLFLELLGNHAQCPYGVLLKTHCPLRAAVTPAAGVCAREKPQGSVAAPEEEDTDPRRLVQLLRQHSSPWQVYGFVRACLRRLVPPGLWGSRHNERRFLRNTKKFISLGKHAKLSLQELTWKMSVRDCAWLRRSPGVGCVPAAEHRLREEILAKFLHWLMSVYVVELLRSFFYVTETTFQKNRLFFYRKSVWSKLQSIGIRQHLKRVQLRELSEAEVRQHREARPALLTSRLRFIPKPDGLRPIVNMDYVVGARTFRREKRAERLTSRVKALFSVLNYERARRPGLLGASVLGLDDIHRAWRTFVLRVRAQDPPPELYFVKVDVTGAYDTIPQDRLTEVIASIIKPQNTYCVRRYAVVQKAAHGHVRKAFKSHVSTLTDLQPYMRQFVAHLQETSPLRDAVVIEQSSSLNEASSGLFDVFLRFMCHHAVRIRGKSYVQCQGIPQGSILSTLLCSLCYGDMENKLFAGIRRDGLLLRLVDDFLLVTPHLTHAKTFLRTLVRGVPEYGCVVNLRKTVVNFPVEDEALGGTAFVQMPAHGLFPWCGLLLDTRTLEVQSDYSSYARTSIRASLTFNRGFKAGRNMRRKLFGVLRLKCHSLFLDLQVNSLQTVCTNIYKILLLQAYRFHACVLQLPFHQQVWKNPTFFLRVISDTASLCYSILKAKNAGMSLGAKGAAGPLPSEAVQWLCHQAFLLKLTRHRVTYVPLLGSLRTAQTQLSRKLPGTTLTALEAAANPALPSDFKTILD
# telomerase, sequence (O60832 whole entry partner): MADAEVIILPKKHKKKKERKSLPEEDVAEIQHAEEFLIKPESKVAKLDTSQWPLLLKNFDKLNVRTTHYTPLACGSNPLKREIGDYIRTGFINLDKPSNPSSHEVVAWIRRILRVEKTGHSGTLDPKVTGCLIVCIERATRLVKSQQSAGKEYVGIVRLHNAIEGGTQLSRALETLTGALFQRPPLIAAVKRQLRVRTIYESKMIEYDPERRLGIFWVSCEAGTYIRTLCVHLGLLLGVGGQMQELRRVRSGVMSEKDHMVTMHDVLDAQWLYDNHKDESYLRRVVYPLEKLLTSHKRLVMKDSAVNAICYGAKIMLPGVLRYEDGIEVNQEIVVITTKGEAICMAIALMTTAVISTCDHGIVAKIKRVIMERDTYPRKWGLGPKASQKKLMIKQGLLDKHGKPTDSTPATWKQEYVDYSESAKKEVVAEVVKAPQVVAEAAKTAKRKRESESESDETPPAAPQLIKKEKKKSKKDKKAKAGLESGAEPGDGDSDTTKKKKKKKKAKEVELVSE
# telomerase, sequence (Q9NPE3 whole entry partner): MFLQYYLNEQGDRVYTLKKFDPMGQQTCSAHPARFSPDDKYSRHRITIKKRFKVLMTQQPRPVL
# telomerase, sequence (Q9NX24 whole entry partner): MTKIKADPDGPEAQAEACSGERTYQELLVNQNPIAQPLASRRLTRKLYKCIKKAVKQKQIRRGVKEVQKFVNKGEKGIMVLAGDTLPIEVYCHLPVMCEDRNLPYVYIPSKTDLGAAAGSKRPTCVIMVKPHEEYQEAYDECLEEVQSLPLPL
# telomerase, sequence (Q9NY12 whole entry partner): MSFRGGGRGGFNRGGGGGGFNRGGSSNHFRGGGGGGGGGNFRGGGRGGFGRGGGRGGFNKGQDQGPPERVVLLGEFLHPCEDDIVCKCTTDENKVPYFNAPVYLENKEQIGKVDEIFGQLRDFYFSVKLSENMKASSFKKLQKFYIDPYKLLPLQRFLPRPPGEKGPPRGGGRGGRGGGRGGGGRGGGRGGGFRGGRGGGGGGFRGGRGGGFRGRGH
# telomerase, sequence (Q9BUR4 whole entry partner): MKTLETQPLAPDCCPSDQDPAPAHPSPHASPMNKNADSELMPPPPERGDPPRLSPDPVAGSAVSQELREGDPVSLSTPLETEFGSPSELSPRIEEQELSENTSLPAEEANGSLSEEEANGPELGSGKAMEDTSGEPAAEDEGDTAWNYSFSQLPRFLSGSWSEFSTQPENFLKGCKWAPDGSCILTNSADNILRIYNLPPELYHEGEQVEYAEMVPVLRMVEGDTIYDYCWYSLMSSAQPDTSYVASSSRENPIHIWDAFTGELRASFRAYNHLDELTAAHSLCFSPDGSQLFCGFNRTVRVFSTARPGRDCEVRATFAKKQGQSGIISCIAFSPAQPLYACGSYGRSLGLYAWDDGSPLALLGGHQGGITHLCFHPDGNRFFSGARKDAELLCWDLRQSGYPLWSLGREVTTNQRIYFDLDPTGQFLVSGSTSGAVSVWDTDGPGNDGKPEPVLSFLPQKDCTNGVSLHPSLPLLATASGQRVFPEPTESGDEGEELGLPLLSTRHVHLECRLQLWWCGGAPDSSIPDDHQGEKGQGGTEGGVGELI
smiles,measurement,setting,value
"O=C1OCC(Cc2ccc3c(c2)OCO3)/C1=C\c1cccc(O)c1 (single isomer, unassigned) [Enantiomer A, 3-[(3,4-dimethoxyphenyl)cyclopentyl], 4-[(3-hydroxyphenol)methyl]oxolan-2-one]",Telomerase Activity RTA (%),"telomerase; MCF7, 2.5 μM, 24 Hours",115.47%
same,Telomerase Activity RTA (%),"telomerase; MCF7, 2.5 μM, 48 Hours",49.73%
same,Telomerase Activity RTA (%),"telomerase; MCF7, 2.5 μM, 72 Hours",15.70%
same,Telomerase Activity RTA (%),"telomerase; MCF7, 5 μM, 24 Hours",35.54%
same,Telomerase Activity RTA (%),"telomerase; MCF7, 5 μM, 48 Hours",29.14%
same,Telomerase Activity RTA (%),"telomerase; MCF7, 5 μM, 72 Hours",14.77%
same,Telomerase Activity RTA (%),"telomerase; MCF7, 10 μM, 24 Hours",40.24%
same,Telomerase Activity RTA (%),"telomerase; MCF7, 10 μM, 48 Hours",28.47%
same,Telomerase Activity RTA (%),"telomerase; MCF7, 10 μM, 72 Hours",15.87%
same,Telomerase Activity RTA (%),"telomerase; MCF7, 20 μM, 24 Hours",25.50%
same,Telomerase Activity RTA (%),"telomerase; MCF7, 20 μM, 48 Hours",41.20%
same,Telomerase Activity RTA (%),"telomerase; MCF7, 20 μM, 72 Hours",5.82%
same,Telomerase Activity RTA (%),"telomerase; MCF7, 40 μM, 24 Hours",62.53%
same,Telomerase Activity RTA (%),"telomerase; MCF7, 40 μM, 48 Hours",36.82%
same,Telomerase Activity RTA (%),"telomerase; MCF7, 40 μM, 72 Hours",0.86%
same,pIC50,"telomerase; MCF7, 24 h",~5.60
same,telomerase activity levels of treated groups compared to control,"telomerase; MCF7, 24 hours",lower telomerase activity levels compared to control
same,Significance of RTA difference vs. control,"telomerase; MCF7, 24 hours, 5 μM",YES (*)
same,Significance of RTA difference vs. control,"telomerase; MCF7, 24 hours, 10 μM",YES (*)
same,Significance of RTA difference vs. control,"telomerase; MCF7, 24 hours, 20 μM",YES (*)
same,Significance of RTA difference vs. control,"telomerase; MCF7, 24 hours, 40 μM",YES (*)
same,pIC50,"telomerase; MCF7, 48 h",5.65
same,telomerase activity levels of treated groups compared to control,"telomerase; MCF7, 48 hours",lower telomerase activity levels compared to control
same,Significance of RTA difference vs. control,"telomerase; MCF7, 48 hours, 5 μM",YES (*)
same,Significance of RTA difference vs. control,"telomerase; MCF7, 48 hours, 10 μM",YES (**)
same,Significance of RTA difference vs. control,"telomerase; MCF7, 48 hours, 40 μM",YES (*)
same,pIC50,"telomerase; MCF7, 72 h",4.70
same,telomerase activity levels of treated groups compared to control,"telomerase; MCF7, 72 hours",groups treated with the two highest concentrations presented further lower RTA levels
same,Significance of RTA difference vs. control,"telomerase; MCF7, 72 hours, 40 μM",YES (**)
same,telomerase inhibition effect,telomerase; MCF7 breast cancer cells,exhibit a telomerase inhibition effect
same,Cell death #1 (%),"[1]; PC3, 24 hours, 0.06 μM",−10.92%
same,Cell death #2 (%),"[1]; PC3, 24 hours, 0.06 μM",−13.82%
same,Cell death #3 (%),"[1]; PC3, 24 hours, 0.06 μM",−11.02%
same,Cell death (%) MEAN,"[1]; PC3, 24 hours, 0.06 μM",−11.92%
same,Cell death #1 (%),"[1]; PC3, 24 hours, 0.17 μM",−27.17%
same,Cell death #2 (%),"[1]; PC3, 24 hours, 0.17 μM",−17.50%
same,Cell death #3 (%),"[1]; PC3, 24 hours, 0.17 μM",−8.79%
same,Cell death (%) MEAN,"[1]; PC3, 24 hours, 0.17 μM",−17.82%
same,Cell death #1 (%),"[1]; PC3, 24 hours, 0.51 μM",−2.70%
same,Cell death #2 (%),"[1]; PC3, 24 hours, 0.51 μM",−15.18%
same,Cell death #3 (%),"[1]; PC3, 24 hours, 0.51 μM",−10.44%
same,Cell death (%) MEAN,"[1]; PC3, 24 hours, 0.51 μM",−9.44%
same,Cell death #1 (%),"[1]; PC3, 24 hours, 1.54 μM",−29.20%
same,Cell death #2 (%),"[1]; PC3, 24 hours, 1.54 μM",−24.37%
same,Cell death #3 (%),"[1]; PC3, 24 hours, 1.54 μM",−23.78%
same,Cell death (%) MEAN,"[1]; PC3, 24 hours, 1.54 μM",−25.78%
same,Cell death #1 (%),"[1]; PC3, 24 hours, 4.63 μM",−17.98%
same,Cell death #2 (%),"[1]; PC3, 24 hours, 4.63 μM",−21.37%
same,Cell death #3 (%),"[1]; PC3, 24 hours, 4.63 μM",−15.27%
same,Cell death (%) MEAN,"[1]; PC3, 24 hours, 4.63 μM",−18.21%
same,Cell death #1 (%),"[1]; PC3, 24 hours, 13.89 μM",−26.49%
same,Cell death #2 (%),"[1]; PC3, 24 hours, 13.89 μM",−20.40%
same,Cell death #3 (%),"[1]; PC3, 24 hours, 13.89 μM",−18.56%
same,Cell death (%) MEAN,"[1]; PC3, 24 hours, 13.89 μM",−21.82%
same,Cell death #1 (%),"[1]; PC3, 24 hours, 41.67 μM",−6.18%
same,Cell death #2 (%),"[1]; PC3, 24 hours, 41.67 μM",−0.76%
same,Cell death #3 (%),"[1]; PC3, 24 hours, 41.67 μM",−12.85%
same,Cell death (%) MEAN,"[1]; PC3, 24 hours, 41.67 μM",−6.60%
same,Cell death #1 (%),"[1]; PC3, 24 hours, 125.00 μM",32.42%
same,Cell death #2 (%),"[1]; PC3, 24 hours, 125.00 μM",28.74%
same,Cell death #3 (%),"[1]; PC3, 24 hours, 125.00 μM",33.00%
same,Cell death (%) MEAN,"[1]; PC3, 24 hours, 125.00 μM",31.39%
same,Cell death #1 (%),"[1]; PC3, 72 hours, 0.06 μM",−39.43%
same,Cell death #2 (%),"[1]; PC3, 72 hours, 0.06 μM",−40.43%
same,Cell death #3 (%),"[1]; PC3, 72 hours, 0.06 μM",−33.95%
same,Cell death (%) MEAN,"[1]; PC3, 72 hours, 0.06 μM",−37.94%
same,Cell death #1 (%),"[1]; PC3, 72 hours, 0.17 μM",−43.42%
same,Cell death #2 (%),"[1]; PC3, 72 hours, 0.17 μM",−40.55%
same,Cell death #3 (%),"[1]; PC3, 72 hours, 0.17 μM",−38.31%
same,Cell death (%) MEAN,"[1]; PC3, 72 hours, 0.17 μM",−40.76%
same,Cell death #1 (%),"[1]; PC3, 72 hours, 0.51 μM",−63.73%
same,Cell death #2 (%),"[1]; PC3, 72 hours, 0.51 μM",−69.58%
same,Cell death #3 (%),"[1]; PC3, 72 hours, 0.51 μM",−63.23%
same,Cell death (%) MEAN,"[1]; PC3, 72 hours, 0.51 μM",−65.51%
same,Cell death #1 (%),"[1]; PC3, 72 hours, 1.54 μM",−46.91%
same,Cell death #2 (%),"[1]; PC3, 72 hours, 1.54 μM",−52.39%
same,Cell death #3 (%),"[1]; PC3, 72 hours, 1.54 μM",−53.51%
same,Cell death (%) MEAN,"[1]; PC3, 72 hours, 1.54 μM",−50.94%
same,Cell death #1 (%),"[1]; PC3, 72 hours, 4.63 μM",−76.31%
same,Cell death #2 (%),"[1]; PC3, 72 hours, 4.63 μM",−66.59%
same,Cell death #3 (%),"[1]; PC3, 72 hours, 4.63 μM",−54.63%
same,Cell death (%) MEAN,"[1]; PC3, 72 hours, 4.63 μM",−65.85%
same,Cell death #1 (%),"[1]; PC3, 72 hours, 13.89 μM",−45.54%
same,Cell death #2 (%),"[1]; PC3, 72 hours, 13.89 μM",−47.91%
same,Cell death #3 (%),"[1]; PC3, 72 hours, 13.89 μM",−30.21%
same,Cell death (%) MEAN,"[1]; PC3, 72 hours, 13.89 μM",−41.22%
same,Cell death #1 (%),"[1]; PC3, 72 hours, 41.67 μM",9.78%
same,Cell death #2 (%),"[1]; PC3, 72 hours, 41.67 μM",23.24%
same,Cell death #3 (%),"[1]; PC3, 72 hours, 41.67 μM",14.02%
same,Cell death (%) MEAN,"[1]; PC3, 72 hours, 41.67 μM",15.68%
same,Cell death #1 (%),"[1]; PC3, 72 hours, 125.00 μM",75.56%
same,Cell death #2 (%),"[1]; PC3, 72 hours, 125.00 μM",74.94%
same,Cell death #3 (%),"[1]; PC3, 72 hours, 125.00 μM",74.82%
same,Cell death (%) MEAN,"[1]; PC3, 72 hours, 125.00 μM",75.11%
same,prostate cancer cell death as compared to enterolactone,"[1]; PC3, at higher concentrations, 24 hours and 72 hours post-treatment",increased prostate cancer cell death as compared to enterolactone
